{"source": "patent US20250250267A1", "about": "“NITROGEN-CONTAINING BRIDGED HETEROCYCLIC COMPOUND, PREPARATION METHOD THEREFOR, AND MEDICAL USE THEREOF” (Jiangsu Hengrui Pharmaceuticals Co., Ltd., priority 2020, published 2025)", "key": {"[1]": {"system": "human complement alternative pathway", "experiment": "Inhibition of human complement alternative pathway (zymosan-activated human serum with EGTA, C5b-9 formation)", "type": "biochemical", "settings": "zymosan A, C5b-9 readout", "source_text": "The alternative pathway can be activated by zymosan. The extent of activation of the alternative pathway can be evaluated by assaying the formation of the C5b-9 complex. […] Since the activation of the two pathways requires both magnesium and calcium ions, and the alternative pathway requires magnesium ions only, after chelation with the calcium ion chelator EGTA, the alternative pathway is not inhibited, while the classical pathway and the lectin pathway are. After chelation with EDTA, the three pathways are all inhibited. Therefore, the inhibitory effects of the small-molecule compounds on the alternative pathway can be evaluated by activating the complement alternative pathway in human serum with zymosan in the presence of the EGTA chelator and assaying the formation of the C5b-9 complex.\nZymosan A powder was resuspended at 10 mg/mL in TBS solution and activated by heating at 100° C. for 2 h. After the activation, the suspension was centrifuged at 4000 rpm for 30 min, and the supernatant was discarded. The residue was resuspended in TBS to form a 50 mg/mL suspension. The suspension was aliquoted and stored in a −20° C. freezer. The day before the experiment, the activated zymosan A solution was diluted to 1 mg/mL with the carbonic acid buffer (pH 9.5) and added to a 96-well adsorption black plate at 100 μL/well, and the plate was coated at 4° C. overnight.\nA 100 mM Na2CO3 solution and a 100 mM NaHCO3 solution were prepared and mixed in a ratio of Na2CO3 to NaHCO3 of 3:7 (v/v) to adjust the pH to 9.5. The mixture was stored at room temperature for later use.\nActivation reactions of the complement alternative pathway: Human serum was 5-fold diluted with PBS solution to form a 20% serum solution, and the solution was placed on ice for later use. 20 mM test compounds dissolved in 100% DMSO were serially diluted with 100% DMSO to 2000, 500, 125, 31.25, 7.8125, 0.488281, 0.12207, 0.030518, and 0.007629 μM, with the blank well containing 100% DMSO. The compounds and 100% DMSO were then 20-fold diluted in 2× EGTA reaction buffer (4.2 mM HEPES, 0.15 mM CaCl2), 140 mM NaCl, 4.5 mM MgCl2, 0.1% gelatin, 20 mM EGTA). Meanwhile, 100% DMSO was 20-fold diluted in 2× EDTA reaction buffer (4.2 mM HEPES, 0.15 mM CaCl2), 140 mM NaCl, 4.5 mM MgCl2, 0.1% gelatin, 20 mM EDTA) as a negative control well. 40-μL serum-EGTA reaction mixtures were prepared by mixing well 20 μL of 20% human serum, 4 μL of the above test compounds or DMSO diluted in 2× EGTA reaction buffer, and 16 μL of 2× EGTA reaction buffer. Serum-EGTA-DMSO was used as a blank control. The mixtures were incubated at room temperature for 30 min. In the negative control well, a 40-μL serum-EDTA reaction mixture was prepared by mixing well 20 μL of 20% human serum, 4 μL of the above DMSO diluted in 2× EDTA reaction buffer, and 16 μL of 2× EDTA reaction buffer. The mixture was incubated at room temperature for 30 min. The 96-well adsorption black plate coated with zymosan A one day ahead of time was washed 3 times with 300 μL/well TBST (0.05% tween 20) solution, and the serum-EGTA-test compound reaction mixtures, the blank control well, and the serum-EDTA-DMSO reaction mixture (negative control well) were added at 25 L/well. The mixtures were reacted at 37° C. for 40 min. The plate was washed 3 times with 300 μL/well TBST solution, the StartingBlock™ T20 (TBS) blocking buffer was added at 300 μL/well, and the plate was incubated at 37° C. for 15 min."}, "[2]": {"system": "passive heymann nephritis rats", "experiment": "Therapeutic effects on Heymann nephritis in rats induced by sheep anti-rat Fx1A serum", "type": "in vivo", "settings": "for decrease in rat serum iC3b+C3d compared to the model group: serum day 15; for decrease in the ratio of total protein/creatinine in rat urine compared to the model group: day 14", "description": "Experimental animals: laboratory male SD rats, provided by Vital River Laboratory Animal Technology Co., Ltd. (production license number: SCXK (Zhejiang) 2019-0001; animal certificate number: 20210401Abzz0619000322; weighing 180-200 g at purchase).\nAfter the acclimatization, the male SD rats were grouped as follows according to total protein in urine and body weight in the 2 days before the experiment:\nOn day 0 of the experiment, the model group and administration groups were given a single tail vein injection of Fx1A serum (5 mL/kg), and the normal group was given a tail vein injection of normal goat serum. […] The experiment ended on day 15. Two-hour urine was collected on days 2, 4, 6, 8, 11, and 14 and assayed for creatinine and total protein. Serum was collected on day 15 for complement activation fragment (C3d+iC3b) analysis.\nThe experimental data are expressed as mean±standard error (SEM). Statistical comparison was performed using Excel software t-test. The data of the model group and the data of the blank control group were analyzed and compared to judge whether a significant mathematical statistical significance exists. *P<0.05 indicates a significant difference between the model group and the blank control group, **P<0.01 indicates a highly significant difference between the model group and the blank control group, and ***P<0.001 indicates a very highly significant difference between the model group and the blank control group. #P<0.05 indicates a significant difference between an administration group and the model group, ##P<0.01 indicates a highly significant difference between an administration group and the model group, and ###P<0.001 indicates a very highly significant difference between an administration group and the model group."}, "[3]": {"target": "human complement factor B (Homo sapiens (Human), UniProt P00751)", "experiment": "biochemical", "procedure": "Assays for the C3a des Arg epitope generated after C3 is cleaved can be used to evaluate the efficiency of C3 being hydrolyzed, i.e., the C3bBb enzyme activity, and thereby to evaluate the effects of the compounds on the C3bBb enzyme.\nA 100 mM Na2CO3 solution and a 100 mM NaHCO3 solution were prepared and mixed in a ratio of Na2CO3 to NaHCO3 of 3:7 (v/v) to adjust the pH to 9.5. The mixture was stored at room temperature for later use. […] The compounds and 100% DMSO were then 20-fold diluted in C3 reaction buffer (PBS pH 7.4, 1 mM MgCl2, 0.05% CHAPS).\nCleavage reactions of the C3 protein: In a 96-well low-volume white plate, 10-μL reaction systems were prepared by adding CVF:Bb (to a final concentration of 2 nM) and 1 μL of the above test compounds and DMSO diluted in C3 reaction buffer to C3 reaction buffer (PBS pH 7.4, 1 mM MgCl2, 0.05% CHAPS). The plate was incubated at room temperature for 1 h. […] Human complement factor C3 was added to the reaction systems to a final concentration of 500 nM. After they were well mixed, the mixtures were reacted in a constant-temperature incubator at 37° C. for 2 h. Among the reaction mixtures, the reaction well that contained only 500 nM human complement factor C3 was used as a negative control. To a 96-well adsorption black plate, 97 μL of the carbonic acid buffer (pH 9.5) was added, and the C3 protein cleavage reaction mixtures were added at 3 μL/well. After they were well mixed, the plate was sealed and incubated at 4° C. overnight.\nC3a des Arg assays: The plate was washed 3 times with 300 μL/well TBST (0.05% tween 20) solution, the StartingBlock™ T20 (TBS) blocking buffer was added at 300 μL/well, and the plate was incubated at 37° C. for 5 min. […] The plate was washed 3 times with 300 μL/well PBST solution, the goat anti-mouse IgG H&L (HRP) antibody was 1:5000 diluted in PBST solution and added at 100 μL/well, and the plate was incubated at 37° C. for 30 min. […]\nThe inhibition rate was calculated using the following formula:"}, "[4]": {"system": "patients with PNH and active hemolysis", "settings": "cited from earlier work"}, "[5]": {"system": "IgAN patients", "settings": "4 IgAN patients, end of phase 2; cited from earlier work"}}, "note": "pIC50: −log10 of the molar value."}
{"compound": "CCO[C@H]1C[C@H]2CC[C@](c3ccc(C(=O)O)cc3)(C1)N2Cc1c(OC)cc(C)c2[nH]ccc12", "note": "(relative stereo) [Example 1, (±)-rel-4-((1S,3S,5R)-3-Ethoxy-8-((5-methoxy-7-methyl-1H-indol-4-yl)methyl)-8-azabicyclo[3.2.1]octan-1-yl)benzoic acid]", "values": [{"measurement": "pIC50", "setting": "[1]", "value": 7.36}]}
{"compound": "CCO[C@H]1C[C@H]2CCC(c3ccc(C(=O)O)cc3)(C1)N2Cc1c(OC)cc(C)c2[nH]ccc12", "note": "(stereo in doubt) [Example 1-1, 4-((1S,3S,5R)-3-Ethoxy-8-((5-methoxy-7-methyl-1H-indol-4-yl)methyl)-8-azabicyclo[3.2.1]octan-1-yl)benzoic acid]", "values": [{"measurement": "decrease in rat serum iC3b+C3d compared to the model group", "setting": "[2]; 10 mg/kg orally twice daily", "value": 76.2, "unit": "%"}, {"measurement": "decrease in rat serum iC3b+C3d compared to the model group", "setting": "[2]; 30 mg/kg orally twice daily", "value": 105.5, "unit": "%"}, {"measurement": "decrease in rat serum iC3b+C3d compared to the model group", "setting": "[2]; 90 mg/kg orally twice daily", "value": 108.7, "unit": "%"}, {"measurement": "pIC50", "setting": "[1]", "value": 7.57}]}
{"compound": "CCO[C@H]1C[C@H]2CCC(c3ccc(C(=O)O)cc3)(C1)N2Cc1c(C)cc(C)c2[nH]ccc12", "note": "(stereo in doubt) [Example 3, 4-((1S,3S,5R)-8-((5,7-Dimethyl-1H-indol-4-yl)methyl)-3-ethoxy-8-azabicyclo[3.2.1]octan-1-yl)benzoic acid]", "values": [{"measurement": "pIC50", "setting": "[1]", "value": 7.30}, {"measurement": "pIC50", "setting": "[3]", "value": 8.31}]}
{"compound": "CCO[C@H]1C[C@H]2CCC(c3ccc(C(=O)O)cc3)(C1)N2Cc1c(C2CC2)cc(C)c2[nH]ccc12", "note": "(stereo in doubt) [Example 4, 4-((1S,3S,5R)-8-((5-Cyclopropyl-7-methyl-1H-indol-4-yl)methyl)-3-ethoxy-8-azabicyclo[3.2.1]octan-1-yl)benzoic acid]", "values": [{"measurement": "pIC50", "setting": "[1]", "value": 7.30}, {"measurement": "pIC50", "setting": "[3]", "value": 8.80}]}
{"compound": "CCO[C@H]1C[C@H]2CCC(c3ccc(C(=O)O[C@@H]4O[C@H](C(=O)O)[C@@H](O)[C@H](O)[C@H]4O)cc3)(C1)N2Cc1c(OC)cc(C)c2[nH]ccc12", "note": "(stereo in doubt) [Example 5, (2S,3S,4S,5R,6S)-6-((4-((1S,3S,5R)-3-Ethoxy-8-((5-methoxy-7-methyl-1H-indol-4-yl)methyl)-8-azabicyclo[3.2.1]octan-1-yl)benzoyl)oxy)-3,4,5-trihydroxytetrahydro-2H-pyran-2-carboxylic acid]", "values": [{"measurement": "pIC50", "setting": "[1]", "value": 7.13}, {"measurement": "pIC50", "setting": "[3]", "value": 7.52}]}
{"compound": "CCO[C@H]1CCN(Cc2c(OC)cc(C)c3[nH]ccc23)[C@H](c2ccc(C(=O)O)cc2)C1", "note": "[LNP023]", "values": [{"measurement": "decrease in LDH", "setting": "[4]; at 13 weeks, all the patients, LNP023 twice daily with eculizumab", "value": "34-81%"}, {"measurement": "males with Hb>120 g/L", "setting": "[4]; at 13 weeks", "value": 71, "unit": "%"}, {"measurement": "tolerability", "setting": "[4]; twice daily for at least 13 weeks with eculizumab", "value": "well tolerated"}, {"measurement": "day from which statistical decreases in urine total protein/creatinine ratio began", "setting": "[2]; 20 mg/kg orally twice daily", "value": 11, "unit": "days"}, {"measurement": "decrease in the ratio of total protein/creatinine in rat urine compared to the model group", "setting": "[2]; 20 mg/kg orally twice daily", "value": 56.4, "unit": "%"}, {"measurement": "decrease in rat serum iC3b+C3d compared to the model group", "setting": "[2]; 20 mg/kg orally twice daily", "value": 62.2, "unit": "%"}, {"measurement": "day from which statistical decreases in urine total protein/creatinine ratio began", "setting": "[2]; 60 mg/kg orally twice daily", "value": 11, "unit": "days"}, {"measurement": "decrease in the ratio of total protein/creatinine in rat urine compared to the model group", "setting": "[2]; 60 mg/kg orally twice daily", "value": 47.1, "unit": "%"}, {"measurement": "decrease in rat serum iC3b+C3d compared to the model group", "setting": "[2]; 60 mg/kg orally twice daily", "value": 68.8, "unit": "%"}, {"measurement": "dose dependence of the decrease in urine total protein/creatinine ratio", "setting": "[2]; day 14, across dose groups", "value": "not significantly dose-dependent"}]}
{"compound": "OMS721: humanized monoclonal antibody targeting the MASP-2 protein developed by Omeros Inc.", "values": [{"measurement": "proteinuria index", "setting": "[5]", "value": "significantly improved"}]}
